Structures are written as SMILES. Where only a bound is given, the exact number is not on record here.

The results in this text go back to patent US20220033397A1, “PHARMACEUTICAL COMPOUNDS AND THEIR USE AS INHIBITORS OF UBIQUITIN SPECIFIC PROTEASE 19 (USP19)” (ALMAC DISCOVERY LIMITED, priority 2018, published 2022).

In this test the target is T1, Full-length USP19 (Homo sapiens, UniProt O94966).
T1 construct: Full-length USP19 was purchased from Boston Biochem (E-576); purchased Boston Biochem E-576
T1 sequence (O94966 1-1318): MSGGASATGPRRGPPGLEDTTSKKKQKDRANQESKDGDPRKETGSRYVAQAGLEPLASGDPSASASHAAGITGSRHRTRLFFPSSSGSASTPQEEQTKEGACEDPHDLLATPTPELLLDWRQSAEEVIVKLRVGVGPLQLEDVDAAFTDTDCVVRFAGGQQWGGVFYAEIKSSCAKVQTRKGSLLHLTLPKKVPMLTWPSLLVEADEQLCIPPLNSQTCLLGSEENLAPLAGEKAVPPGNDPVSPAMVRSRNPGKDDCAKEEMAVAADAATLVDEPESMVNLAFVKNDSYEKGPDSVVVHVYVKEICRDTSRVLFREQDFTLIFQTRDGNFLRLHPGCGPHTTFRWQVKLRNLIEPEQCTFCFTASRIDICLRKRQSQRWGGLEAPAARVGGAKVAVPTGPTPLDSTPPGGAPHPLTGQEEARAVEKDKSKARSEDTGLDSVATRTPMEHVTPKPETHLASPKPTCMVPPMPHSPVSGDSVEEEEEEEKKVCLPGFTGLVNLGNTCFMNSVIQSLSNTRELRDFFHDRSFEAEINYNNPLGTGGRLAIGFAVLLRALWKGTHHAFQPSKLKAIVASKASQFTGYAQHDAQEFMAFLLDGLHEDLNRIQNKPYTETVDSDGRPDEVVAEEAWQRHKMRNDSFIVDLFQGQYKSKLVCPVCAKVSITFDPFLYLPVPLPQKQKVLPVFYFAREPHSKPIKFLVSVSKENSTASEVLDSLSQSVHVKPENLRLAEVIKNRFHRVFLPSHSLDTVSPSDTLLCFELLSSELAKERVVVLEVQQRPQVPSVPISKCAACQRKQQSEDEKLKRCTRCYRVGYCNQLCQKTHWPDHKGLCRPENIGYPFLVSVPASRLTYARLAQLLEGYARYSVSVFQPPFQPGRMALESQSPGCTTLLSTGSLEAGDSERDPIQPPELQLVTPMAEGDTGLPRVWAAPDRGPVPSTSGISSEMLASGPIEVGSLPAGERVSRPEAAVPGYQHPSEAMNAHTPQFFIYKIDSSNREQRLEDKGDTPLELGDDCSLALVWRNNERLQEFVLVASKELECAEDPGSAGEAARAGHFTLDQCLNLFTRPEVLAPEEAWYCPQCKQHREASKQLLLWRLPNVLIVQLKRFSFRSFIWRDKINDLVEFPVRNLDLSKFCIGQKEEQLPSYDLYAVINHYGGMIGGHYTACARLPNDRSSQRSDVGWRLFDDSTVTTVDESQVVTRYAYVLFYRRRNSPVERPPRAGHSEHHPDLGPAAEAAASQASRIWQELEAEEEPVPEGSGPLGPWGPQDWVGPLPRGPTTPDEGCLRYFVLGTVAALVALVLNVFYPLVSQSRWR
Put plainly: USP19 fluorescence polarisation (FP) homogeneous assay with Ubiquitin-Lys-TAMRA substrate. Type of test: biochemical. To be noted: 2.5 nM USP19, 30 min pre-incubation, average of at least two duplicate experiments. The gist of the method:
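Full-length USP19 preincubated 30 min at RT with inhibitor (200 μM to 2 μM series, 8–18 points) before adding 500 nM Ubiquitin-Lys-TAMRA substrate.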
(In general: Fluorescence polarisation rises when a labelled molecule tumbles more slowly, as on binding a larger partner.)

As a reminder, the IC50 is the midpoint of a concentration-inhibition curve. `O=C(N1CC[C@@](O)(Cn2cnc(N3CC4CC4C3)cc2=O)C2(CCCC2)C1)N1CCNC[C@H]1c1cc(F)ccc1F` (stereo partly drawn) [Example 389, 6-(3-Aza-bicyclo[3.1.0]hexan-3-yl)-3-(((S)-7-((R)-2-(2,5-difluoro-phenyl)piperazine-1-carbonyl)-10-hydroxy-7-aza-spiro[4.5]decan-10-yl)methyl)pyrimidin-4(3H)-one]: the IC50 was under 500 nM.

Consider `C[C@@]1(c2ccccc2)CNCCN1C(=O)N1CC[C@@](O)(Cn2cnc(-c3ccccc3)cc2=O)C2(CCCC2)C1` [Example 390, 3-(((S)-10-Hydroxy-7-((R)-2-methyl-2-phenylpiperazine-1-carbonyl)-7-azaspiro[4.5]decan-10-yl)methyl)-6-phenylpyrimidin-4(3H)-one], for which the IC50 is under 500 nM.

As for `O=C(N1CC[C@@](O)(Cn2ccc(-c3ccccc3F)cc2=O)C2(CCCC2)C1)N1CCNC[C@H]1c1cccc(F)c1` [Example 391, 4-(2-Fluorophenyl)-1-(((S)-7-((R)-2-(3-fluorophenyl)pipera-zine-1-carbonyl)-10-hydroxy-7-azaspiro[4.5]decan-10-yl)methyl)pyri-din-2(1H)-one], the IC50 is under 500 nM.

Turning to `O=C(N1CC[C@@](O)(Cn2cnc(-c3ccccc3F)cc2=O)C2(CCCC2)C1)N1CCNC[C@H]1c1cc(F)cc(F)c1` [Example 392, 3-(((S)-7-((R)-2-(3,5-Difluoro-phenyl)piper-azine-1-carbonyl)-10-hydroxy-7-azaspiro[4.5]decan-10-yl)methyl)-6-(2-fluorophenyl)pyrimi-din-4(3H)-one], the IC50 was under 500 nM.

On to `O=C(N1CC[C@@](O)(Cn2cnc(-c3ccccc3)cc2=O)C2(CCCC2)C1)N1CCSC[C@H]1c1cc(F)ccc1F` [Example 393, 3-(((S)-7-((R)-3-(2,5-Difluorophenyl)thio-morpholine-4-carbo-nyl)-10-hydroxy-7-azaspiro[4.5]decan-10-yl)methyl)-6-phenylpyrimidin-4(3H)-one], for which the IC50 was under 500 nM.

In the case of `O=C(N1CC[C@@](O)(Cn2cnc(-c3ccccc3)cc2=O)C2(CCCC2)C1)N1CCS(=O)(=O)C[C@H]1c1cc(F)ccc1F` [Example 394, 3-(((S)-7-((R)-3-(2,5-Difluoro-phenyl)-1,1-dioxidothio-morpholine-4-carbonyl)-10-hydroxy-7-aza-spiro[4.5]decan-10-yl)methyl)-6-phenylpyrimidin-4(3H)-one], the IC50 was under 500 nM.

For `N[C@H]1CCN(C(=O)N2CC[C@@](O)(Cn3cnc(-c4ccccc4)cc3=O)C3(CCCC3)C2)[C@H](c2ccccc2)C1` [Example 396, 3-(((S)-7-((2S,4S)-4-Amino-2-phenyl-piperidine-1-car-bonyl)-10-hydroxy-7-azaspiro[4.5]de-can-10-yl)meth-yl)-6-phenyl-pyrimidin-4(3H)-one], the IC50 is under 500 nM.

As for `N[C@@H]1CCN(C(=O)N2CC[C@@](O)(Cn3cnc(-c4ccccc4)cc3=O)C3(CCCC3)C2)[C@H](c2ccccc2)C1` [Example 397, 3-(((S)-7-((2S,4R)-4-Amino-2-phenyl-piperidine-1-carbo-nyl)-10-hydroxy-7-azaspiro[4.5]decan-10-yl)methyl)-6-phenylpyrimidin-4(3H)-one], the IC50 is under 500 nM.
